Experiments:
[1] = UV absorbance of PMMA films loaded with additive; type: physicochemical; conditions: additive 7.5% w/w of PMMA
Description: A quantity of a polyaromatic compound (i.e.compound (XI), Table 9), was added in part of this solution at a 7.5% w/w of the polymer concentration.
The solution was stirred at room temperature for a few hours and the polyaromatic compound was dissolved. Then, a small amount of the solution was used to spin coat a film on quartz substrate at 4000 rpm for 30 sec. The thickness of this film was measured by a profilometer and found 12250 Å. The absorption spectrum of the film was taken at vertical incidence.
The same procedure was repeated, using the initial PMMA solution this time. A new film was spun and its thickness was found 13000 Å. […]

[2] = Sublimation of additive from PMMA film on hotplate heating (absorption spectra); type: physicochemical
Description: The same procedure was repeated for heating at 110° C., 130° C. and 160° C. The spectra taken each time were compared and the possible sublimation of the additive after the different thermal treatment procedures was calculated.
The following explanations apply to all tables. […] SUBL=temperature of sublimation.

[3] = Solubility of additive in the solvents used (PGMEA, MIBK)
Description: It is important that the selected additive is soluble in the solvents commonly used in the microlithography process. […] After film formation the amount of the additive sublimed during the baking cycles was tested. Evaluation of spectroscopic and etch resistance enhancement followed.
SOL=solubility at the solvents used (##=very bad, #=bad, *=good, **=very good). SUBL=temperature of sublimation.

[4] = UV absorbance of PMMA films loaded with additive; type: physicochemical; conditions: additive 5% w/w of PMMA; value includes PMMA absorbance (higher by 0.07)

Row | SMILES | UV 193 nm (absorbance) [1] | UV 248 nm (absorbance) [1] | SUBL (temperature of sublimation) ([2]; additive 7.5% w/w in PMMA film) [°C] | solubility (in words) [3] | SUBL (temperature of sublimation) ([2]; additive 5% w/w in PMMA film) [°C] | UV 193 nm (absorbance) [4]
1 | O=C(OCc1c2ccccc2cc2ccccc12)C12CC3CC(CC(C3)C1)C2 [XI, 1-adamantyl 9-anthrylmethylate] | 0.05 /0.5 μm | 0.36 /0.5 μm | 160 | very good solubility | – | –
2 | O=C(CCC(=O)OC(Cc1c2ccccc2cc2ccccc12)Cc1c2ccccc2cc2ccccc12)OCc1c2ccccc2cc2ccccc12 [IX, 1,3-Di-(9-anthryl)-2-propyl 9-anthrylmethyl Succinate] | 1.41 /0.5 μm | 1.74 /0.5 μm | 160 | decreased solubility | – | –
3 | Nc1ccc2cc3ccccc3cc2c1 [2-aminoanthracene] | – | – | – | – | 110 | 0.51 /0.5 μm
4 | c1ccc2cc3ccccc3cc2c1 [anthracene] | – | – | – | – | 110 | 0.38 /0.5 μm
5 | O=C(OCC(COC(=O)C12CC3CC(CC(C3)C1)C2)Cc1c2ccccc2cc2ccccc12)C12CC3CC(CC(C3)C1)C2 (stereo not drawn) [Compound XIII, Mixed anthryl ester] | 0.17 /0.5 μm | 0.45 /0.5 μm | 160 | – | – | –
6 | OC(Cc1c2ccccc2cc2ccccc12)Cc1c2ccccc2cc2ccccc12 [I] | 0.16 /0.5 μm | 0.48 /0.5 μm | 160 | improved solubility | – | –
7 | OCc1c2ccccc2cc2ccccc12 [9-anthracene methanol] | – | – | – | – | 110 | 0.43 /0.5 μm
8 | O=C(O)c1c2ccccc2cc2ccccc12 [9-anthracene carboxylic acid] | – | – | – | – | 110 | 0.46 /0.5 μm
9 | CC(=O)C1CCC2C3CC=C4CC(OC(=O)c5c6ccccc6cc6ccccc56)CCC4(C)C3CCC12C (stereo not drawn) [Compound XIV, 5-pregnen-3β-yl-(9-anthryl-methylate)-20-one] | 0.20 /0.5 μm | 0.52 /0.5 μm | 160 | – | – | –

Now from value to molecule, other results behind:

Row | UV 193 nm (absorbance) [1] | UV 248 nm (absorbance) [1] | SUBL (temperature of sublimation) ([2]; additive 7.5% w/w in PMMA film) [°C] | solubility (in words) [3] | SMILES | SUBL (temperature of sublimation) ([2]; additive 5% w/w in PMMA film) [°C] | UV 193 nm (absorbance) [4]
10 | 0.33 /0.5 μm | 1.25 /0.5 μm | 160 | improved solubility | O=C(O)CCC(=O)OC(Cc1c2ccccc2cc2ccccc12)Cc1c2ccccc2cc2ccccc12 [II, 1,3-di-(9-anthryl2-propyl hydrogen succinate] | – | –
11 | – | – | – | improved solubility | c1ccc2c(CNC3CCCCC3NCc3c4ccccc4cc4ccccc34)c3ccccc3cc2c1 (stereo not drawn) [VIII, trans-1,2-Di-(9-aminomethyl-anthryl)-cyclohexane] | – | –
12 | 0.24 /0.5 μm | 1.04 /0.5 μm | 130 | – | O=C(OCCOc1c2ccccc2cc2ccccc12)OCCOc1c2ccccc2cc2ccccc12 [VI, Di-2-(9-anthryloxy)-ethyl carbonate] | – | –
13 | 0.35 /0.5 μm | 1.16 /0.5 μm | 160 | not satisfactory | O=C(OCc1c2ccccc2cc2ccccc12)c1c2ccccc2cc2ccccc12 [VII] | – | –
14 | 0.33 /0.5 μm | 0.75 /0.5 μm | 160 | decreased solubility | O=C(CCC(=O)OC(Cc1c2ccccc2cc2ccccc12)Cc1c2ccccc2cc2ccccc12)OCC(COC(=O)CCC(=O)OC(Cc1c2ccccc2cc2ccccc12)Cc1c2ccccc2cc2ccccc12)Cc1c2ccccc2cc2ccccc12 [X, Penta-anthryl ester] | – | –
15 | 0.22 /0.5 μm | 0.31 /0.5 μm | 160 | – | c1ccc2c(CNCc3c4ccccc4cc4ccccc34)c3ccccc3cc2c1 [IV, N,N-Di-(9-anthrylmethyl)-amine] | – | –
